Source: patent publication US20250345446A1 (Draupnir Bio ApS, priority 2022, published 2025)
Where two headings read alike, the source gives them in different places. Each block holds one compound with its values, some of them ahead of it. Residues, ends and D or L forms follow the SMILES beside them. *: point of attachment. Biotin = O=C1N[C@H]2[C@H](CS[C@H]2CCCCC(=O)*)N1

How the values were obtained:
[1] = tested on: HEK293/sortilin cells; test: Pulse-chase cellular degradation of TNFalpha (Western blot of lysates); assay type: cell-based; conditions: 24 h pre-incubation with compound 3 μM and TNFalpha 100 nM, chase 0 h to 24 h
Description: To monitor cellular degradation of target over time, a pulse-chase experiment was performed: HEK293/sortilin cells were pre-incubated with bifunctional compound (3 μM) and TNFalpha (100 nM) for 24 h before replacing culture supernatant with fresh media without target and bifunctional compound. Following replacement of media, cells were incubated for up to 24 h and TNFa levels was assessed at different timepoints by Western blotting of cell lysates.

[2] = tested on: HEK293 cells expressing full length sortilin receptor; test: Cellular uptake of TNFalpha / Cy5-TNFalpha mediated by bifunctional compounds; assay type: cell-based; conditions: 24 h, 0.5 nM to 20 μM, leupeptin 80 μM vs without
Description: Cellular uptake of TNFalpha was investigated in HEK293 cells expressing full length sortilin receptor using a methodology analogous to example 3 with TNFalpha target.
Efficacy of individual bifunctional compounds was assessed as AUC of TNFalpha internalisation (Table 9)

[3] = tested on: HEK293/sortilin cells; test: Remaining TNFalpha in conditioned media (ELISA); assay type: cell-based; conditions: after 72 h, 20 nM TNFalpha; added TNFalpha (100%) subtracted remaining TNFalpha (%)
Description: In different experiments, HEK293/sortilin cells were incubated with compound gradient series and 20 nM TNFalpha for up to 72 h. Following incubation, remaining TNFalpha in conditioned media was evaluated using human TNF-alpha Quantikine ELISA Kit (R&D systems, DTA00D).

[4] = biological target: T1, soluble ectodomain of sortilin-6his (Homo sapiens, UniProt Q99523, V650M); test: MST binding to soluble ectodomain of sortilin-6his; conditions: MST, read-out: KD score, binding to sortilin (Kd)
T1 construct: the soluble ectodomain of sortilin-6his is measured by microscale thermophoresis (MST)
T1 sequence (Q99523 with tags, fused parts or gaps V650M): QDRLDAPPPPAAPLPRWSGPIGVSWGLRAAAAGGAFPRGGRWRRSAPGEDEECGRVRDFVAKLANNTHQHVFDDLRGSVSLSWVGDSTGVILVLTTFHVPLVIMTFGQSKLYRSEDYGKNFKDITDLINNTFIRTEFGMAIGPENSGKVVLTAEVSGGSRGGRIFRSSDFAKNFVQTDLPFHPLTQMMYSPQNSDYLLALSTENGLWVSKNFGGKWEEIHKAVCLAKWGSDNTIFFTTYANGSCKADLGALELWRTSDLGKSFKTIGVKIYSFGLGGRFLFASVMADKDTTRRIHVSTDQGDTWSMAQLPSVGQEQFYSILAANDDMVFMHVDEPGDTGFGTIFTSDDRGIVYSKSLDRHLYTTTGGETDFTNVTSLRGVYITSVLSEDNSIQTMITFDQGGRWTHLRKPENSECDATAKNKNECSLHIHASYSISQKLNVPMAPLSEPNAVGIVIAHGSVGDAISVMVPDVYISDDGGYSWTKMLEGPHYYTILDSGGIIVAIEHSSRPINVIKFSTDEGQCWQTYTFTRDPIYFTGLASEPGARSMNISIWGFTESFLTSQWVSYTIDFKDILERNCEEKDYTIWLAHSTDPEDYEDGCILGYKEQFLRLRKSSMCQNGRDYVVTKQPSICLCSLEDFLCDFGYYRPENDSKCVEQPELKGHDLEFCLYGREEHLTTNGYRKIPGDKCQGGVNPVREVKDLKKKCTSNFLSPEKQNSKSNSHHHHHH

[5] = tested on: TNFa plasma levels; test: Mouse model of LPS induced acute systemic inflammation, plasma TNFa; assay type: in vivo; conditions: 10 or 30 mg/kg, 1 hour after LPS, C57BL/6J mice, p<0.0001 (one-way ANOVA)
Description: Degrader in vivo efficacy was investigated in a mouse model of lipopolysaccaride (LPS) induced acute systemic inflammation. Female C57BL/6J mice, 8 weeks of age were used in this model, and LPS was dosed as IP injection at a final concentration of 0.5 mg/kg in PBS at 10 ml/kg. 30 min to 3 hours prior LPS administration, animals were dosed with test compound (100-0.3 mg/kg/IP), dexamethasone (Dex) control (0.5 mg/kg/PO) or vehicle control (IP). Untreated (normal) animals were included as control for LPS induced TNFa expression. One hour post LPS administration, blood samples were collected and TNFa level was assessed by Cytometric Bead Array assay.

[6] = tested on: HEK293/sortilin cells; test: Lysosomal degradation of internalized AlexaFluor488-anti-DNP antibody (blotted lysates); assay type: cell-based; conditions: 6:30 h, AlexaFluor488-anti-DNP antibody 100 nM, compound 30 nM
Description: Intracellular levels of AlexaFluor488-anti-DNP antibody (Thermo Fisher) following internalization was investigated in HEK293/sortilin cells. Cells (250k) were seeded in 4-well plates in 250 μL culture medium as described in Example 3 and incubated overnight.
Culture medium was replaced with assay medium (as described in Example 3) with AlexaFluor488-anti-DNP antibody (Thermo Fisher) (100 nM) and BF005 (30 nM). Selected samples were added sortilin inhibitor, AF38469 (10 μM) or a lysosomal protease inhibitor, Leupeptin (80 μM) (Sigma Aldrich). Cells were incubated 3-6: 30 h in cell incubator before they were washed with dPBS (Bionordika) and medium was either replaced with assay medium without BF005 and AlexaFluor488-anti-DNP antibody and incubated in cell incubator for up to 24 h or cells were lysed. Following incubation, cells were lysed in lysis buffer, and lysates were subjected to SDS-PAGE before transfer of proteins to a nitrocellulose membrane as described in Example 4. AlexaFluor488 FI signal was detected using an iBright 1500 (Thermo Fisher). Following evaluation of FI signal, membrane was blocked and incubated with primary anti-β-actin antibody (1:3500) (Sigma Aldrich) and secondary anti-mouse-HRP antibody (1:3500) (Abcam) and developed and analyzed using ECL reagents (Cytiva) and iBright 1500 (Thermo Fisher), as described in example 4. […]

[7] = biological target: streptavidin, bifunctional compound and sortilin-6his (UniProt P22629+Q99523, V650M); test: TR-FRET ternary complex formation streptavidin / bifunctional peptide / sortilin-6his; conditions: Table 2; […] incubation, HTRF ratio 665/620 nm
[8] = tested on: HEK293/sortilin; test: Cellular uptake of target in HEK293 cells expressing sortilin receptor (Example 22); assay type: cell-based; conditions: 3 h, 2 nM to 2 μM, corresponding targets
[9] = tested on: HEK293/sortilin cells; test: Depletion of NA650 from cell culture supernatant; assay type: cell-based; conditions: after 48 and 72 hours, NA650 100 nM, 20 nM-5 μM
Description: HEK293/sortilin cells were cultured in culture media containing DMEM (Lonza) further supplemented with 10% fetal bovine serum (Sigma), 1% GlutaMax Supplement (Gibco), penicillin-streptomycin (Thermo Fischer) and selection antibiotics 100 μg/mL Zeocin (Invitrogen). 35k cells/well were seeded in poly-L-lysine coated 96-well plates (Perkin Elmer) and allowed to incubate for 16-24 h in cell incubator (37° C., humidified, 5% CO2). Culture media were discarded, and the cells were washed with assay medium containing FluoroBright DMEM (Gibco) supplemented with 10% fetal bovine serum (Sigma) and 1% GlutaMax Supplement (Gibco). The media were discarded and replaced with assay media or assay medium containing 100 nM NA650 (Invitrogen). For wells evaluating the bifunctional compounds, the assay medium also contained concentrations ranging from 20 nM to 5 μM. After an incubation period of up to 72 h in the cell incubator the media were harvested and the presence of NA650 were evaluated by fluorescence intensity (FI) measurements of DyLight650 using a fluorescence plate reader (BMG Labtech Clariostar).
HEK293/sortilin cells (35k cells/96-well) were seeded in culture media (as described in Example 3) and incubated for 24 h in cell incubator. Culture media were discarded, and the cells were washed with assay medium containing FluoroBright DMEM (Gibco) and supplements as described in Example 3, before incubation in assay medium containing 100 nM NA650 and small molecule bifunctional compounds (20 nM to 5 μM). After an incubation period of up to 72 h, the media were harvested and the presence of NA650 were evaluated by FI measurements of DyLight650 using a fluorescence plate reader (BMG Labtech Clariostar).

[10] = tested on: untransfected HEK239 cells; test: Cellular uptake of target in untransfected HEK293 cells (Example 22); assay type: cell-based; conditions: HEK293 cells without sortilin, 3 h, 2 nM to 2 μM, corresponding targets
[11] = Table 4, small molecule bifunctional compounds

Kd [4, 11]: 1 to 10 nM
SMILES: C[C@@H]1CN(c2ncc(-c3ccc4c(n3)N(Cc3cccnc3C#N)C(C)(C)C4=O)cn2)CCN1C(=O)CNC(=O)CCCCCCCCCCCNC(=O)c1cccc(Oc2ccc(C(=O)N[C@@H](CCC(C)(C)C)C(=O)O)cn2)c1 [BF042, (2S)-2-[[6-[3-[[12-[[2-[(2R)-4-[5-[1-[(2-cyano-3-pyridyl)methyl]-2,2-dimethyl-3-oxo-pyrrolo[2,3-b]pyridin-6-yl]pyrimidin-2-yl]-2-methyl-piperazin-1-yl]-2-oxo-ethyl]amino]-12-oxo-dodecyl]carbamoyl]phenoxy]pyridine-3-carbonyl]amino]-5,5-dimethyl-hexanoic acid]
TNFalpha bands in cell lysate over time [1]: barely detectable after 7 h
cell associated FI signal with addition of leupeptin [2]: marked increases cell associated signal
Maximum clearance rates of TNFalpha from conditioned media [3]: 74.4%

Kd [4, 11]: 1 to 10 nM
SMILES: Cc1nc2cc(F)c(-c3cnc(N4CCN(C(=O)Cn5cc(COCCOCCOCC(=O)N6CCC(Oc7cccc(Oc8ccc(C(=O)N[C@@H](CCC(C)(C)C)C(=O)O)cn8)c7)CC6)nn5)[C@H](C)C4)nc3)nc2c(N[C@H](C)c2cc(C#N)ccc2F)c1Cl [BF094, (2S)-2-[[6-[3-[[1-[2-[2-[2-[[1-[2-[(2R)-4-[5-[7-chloro-8-[[(1R)-1-(5-cyano-2-fluoro-phenyl)ethyl]amino]-3-fluoro-6-methyl-1,5-naphthyridin-2-yl]pyrimidin-2-yl]-2-methyl-piperazin-1-yl]-2-oxo-ethyl]triazol-4-yl]methoxy]ethoxy]ethoxy]acetyl]-4-piperidyl]oxy]phenoxy]pyridine-3-carbonyl]amino]-5,5-dimethyl-hexanoic acid]
plasma TNFa compared to vehicle group [5]: significant decrease

SMILES: CNC(=O)c1cccc2c(Oc3ccc(C(=O)N[C@@H](CCC(C)(C)C)C(=O)O)cn3)cccc12 [SB001, (2S)-5,5-dimethyl-2-[[6-[[5-(methylcarbamoyl)-1-naphthyl]oxy]pyridine-3-carbonyl]amino]hexanoic acid]
Ig heavy chain (HC) band in lysates [6]: absent

SMILES: CC(C)C[C@H](NC(=O)[C@H](CC(C)C)NC(=O)[C@H](CCC(N)=O)NC(=O)[C@H](Cc1ccccc1)NC(=O)CNC(=O)CNC(=O)[C@H](CO)NC(=O)CNC(=O)CNC(=O)CNC(=O)CNC(=O)[C@H](CO)NC(=O)CNC(=O)CNC(=O)CNC(=O)CNC(=O)[C@H](CO)NC(=O)CNC(=O)CNC(=O)CCCC[C@@H]1SC[C@@H]2NC(=O)N[C@@H]21)C(=O)O [SEQ ID NO.: 155] (Biotin-GGSGGGGSGGGGSGGFQLL-OH)
AUC score, TR-FRET measurements of ternary complex formation [7]: ++ (AUC > 5000)
cell associated FI response to increasing degrader concentration [8]: bell-shaped FI response
NA650 FI signal in supernatant compared to SEQ ID NO.: 147 (in words) [9]: further reduction of target in cell culture supernatant
cell associated FI response to increasing degrader concentration [10]: No response
Kd ([4]; Table 1, biotin-linker-peptide bifunctional compounds): 100 to 2000 nM
